Activity calls are given as the source filed them. No cut-off for these calls is given here.
species: Sus scrofa; assay: (§1) Inhibition of pig pancreatic elastase

Question: With `CCOC(=O)CN1C(=O)C(CC)(CC)C1=O` as the compound, how does the Activity read?
Answer: The Activity was “inactive”.

Question: For `CCC1(CC)C(=O)N(Cc2ccccc2)C1=O`, which Activity is on record?
Answer: The Activity was “inactive”.

target: not listed separately; assay: as §1; parameters: species or system Sus scrofa

Question: For `CCC1(CC)C(=O)N(c2ccc(C#N)cc2)C1=O`, which Ki is on record?
Answer: The Ki was 6.02 µM.

Question: Which Ki does the source give for `CCC1(CC)C(=O)N(c2ccc(OC)cc2)C1=O` here?
Answer: The Ki was 9.81 µM.

Question: For `CCC1(CC)C(=O)N(c2ccccc2)C1=O`, which Ki is on record?
Answer: Its Ki is 10.2 µM.

Question: With `CCC1(CC)C(=O)N(c2ccc(Cl)cc2)C1=O` as the compound, how does the Ki read?
Answer: The Ki was 8.47 µM.

Question: Which Ki does the source give for `CC1(C)C(=O)N(Cc2ccccc2)C1=O` here?
Answer: The Ki was 184 µM.

Question: With `CC1(C)C(=O)N(c2ccc(Cl)cc2)C1=O` as the compound, how does the Ki read?
Answer: The Ki was 10 µM.

Question: With `CCC1(CC)C(=O)N(c2ccc(C)cc2)C1=O` as the compound, how does the Ki read?
Answer: The Ki was 7.46 µM.

— ChEMBL document CHEMBL1142246, “Azetidine-2,4-diones (4-oxo-beta-lactams) as scaffolds for designing elastase inhibitors” (J Med Chem, 2008)
